Experimental data from patent publication US20150119373A1, “NOVEL BETULINIC ACID DERIVATIVES AS HIV INHIBITORS” (HETERO RESEARCH FOUNDATION, priority 2012, published 2015).
Where two headings read alike, the source gives them in different places.

Assays:
HIV-1 strain 92HT599 = test: Antiviral activity: p24 estimation in MT2 cells infected with HIV-1 strain 92HT599; assay type: cell-based; conditions: for inhibition at 0.1 µM: read-out: Antiviral activity % inhibition 100 nM; for inhibition at 1 µM: read-out: Antiviral activity % inhibition 1000 nM
Procedure, shortened: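 Infection of MT2 cells used 10 TCID50/30000 cells, with compound present at ≤1% DMSO for ~96 h. p24 in well aliquots was quantified by kit. Percent inhibition is relative to vehicle controls.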

[1] = Cyto-toxicity assay (MTT) in MT2 cells without virus; assay type: cell-based; conditions: human
Experimental: For cyto-toxicity assay the same amount of MT2 cells as in antiviral assay without virus was added to the 96 well plates. The cyto-toxicity was measured using MTT reagent in parallel with p24 estimation. The percent viability is calculated in comparison with vehicle control.

[2] = Single dose oral pharmacokinetic study in mice; assay type: in vivo; conditions: Oral PK @ 30 mg/ kg dose in mice (Table 6); for Cmax / Tmax / AUC(0-t) / AUC(0-inf): mouse, plasma; for AUC(0-t): read-out: AUCt
Experimental: The test item was administered through oral route to animals (rat/mice) at 30 mg/kg dose in a suitable vehicle at 10 ml/kg dose volume. Blood samples (˜50 uL at each time point) were collected from retro-orbital plexus using K3 EDTA as anticoagulant in eppendorf tubes at defined time intervals under light ether anesthesia. The samples were centrifuged at 3500×g to separate plasma and stored at −80° C. until analysis.
Sample analysis: Test samples were analyzed using LC-MS-MS after developing fit-for-purpose method for each of test compound.

[3] = Human immunodeficiency virus 1, MT2, 96 h
[4] = 100 nM, MT2 cells, MTT, read-out: Cytotoxicity % viability 100 nM
[5] = 1000 nM, MT2 cells, MTT, read-out: Cytotoxicity % viability 1000 nM
[6] = Human immunodeficiency virus 1, 100 nM, MT2 cells, HIV-1 92HT599, ~96 hours, p24
[7] = Human immunodeficiency virus 1, 1000 nM, MT2 cells, HIV-1 92HT599, ~96 hours, p24

For `COC1CCN(C(=O)[C@]23CC[C@@H](C4(C)CC4)[C@@H]2[C@H]2CC[C@@H]4[C@@]5(C)CC[C@H](OC(=O)[C@H]6C[C@@H](C(=O)O)C6(C)C)C(C)(C)[C@@H]5CC[C@@]4(C)[C@]2(C)CC3)CC1` [Example 29], the inhibition at 0.1 µM (HIV-1 strain 92HT599; [3]) was 95%, the inhibition at 1 µM (HIV-1 strain 92HT599; [3]) was 99% and the viability at 100 nM [1, 4] was 81%. It also gave a viability at 1000 nM [1, 5] of 77%, a Tlast [2] of 48 h and a Cmax [2] of 11700 ng/mL. The Tmax [2] was 16 h and the AUC(0-t) [2] was 428 µg·h/mL.

With `[2H]C([2H])([2H])C(CC(=O)O[C@H]1CC[C@]2(C)[C@H]3CC[C@@H]4[C@H]5[C@H](C6(C)CC6)CC[C@]5(C(=O)N5CCN(CC)CC5)CC[C@@]4(C)[C@]3(C)CC[C@H]2C1(C)C)(C(=O)O)C([2H])([2H])[2H]` [Example 30] the inhibition at 0.1 µM (HIV-1 strain 92HT599; [6]) was 97%, the inhibition at 1 µM (HIV-1 strain 92HT599; [7]) was 99% and the viability at 100 nM [1] was 83%. For the same compound, the viability at 1000 nM [1] was 82%, the Tlast [2] was 48 h and the AUC(0-inf) [2] was 78.5 µg·h/mL. It also gave a Cmax [2] of 4700 ng/mL, a Tmax [2] of 3.5 h and an AUC(0-t) [2] of 67.1 µg·h/mL.

Compound `CC(C)(CC(=O)O[C@H]1CC[C@]2(C)[C@H]3CC[C@@H]4[C@H]5[C@H](C6(C)CC6)CC[C@]5(C(=O)N5CCN(CCN6CCOCC6)CC5)CC[C@@]4(C)[C@]3(C)CC[C@H]2C1(C)C)C(=O)O` [Example 31, 2,2-dimethyl-4-oxo-4-(((1R,3aS,5aR,5bR,7aR,9S,11aR,11bR,13aR,13bR)-5a,5b,8,8,11a-pentamethyl-1-(1-methylcyclopropyl)-3a-(4-(2-morpholinoethyl)piperazine-1-carbonyl)icosahydro-1H-cyclopenta[a]chrysen-9-yl)oxy)butanoic acid] has an inhibition at 0.1 µM (HIV-1 strain 92HT599; [6]) of 99%, an inhibition at 1 µM (HIV-1 strain 92HT599; [7]) of 99% and a viability at 100 nM [1] of 100%. For the same compound, the viability at 1000 nM [1] was 95%, the Tlast [2] was 48 h and the AUC(0-inf) [2] was 240 µg·h/mL. For the same compound, the Cmax [2] was 9200 ng/mL, the Tmax [2] was 6.5 h and the AUC(0-t) [2] was 214 µg·h/mL.

For `CC1([C@@H]2CC[C@]3(C(=O)N4CCN(CCN5CCOCC5)CC4)CC[C@]4(C)[C@H](CC[C@@H]5[C@@]6(C)CC[C@H](OC(=O)[C@H]7C[C@@H](C(=O)O)C7(C)C)C(C)(C)[C@@H]6CC[C@]54C)[C@@H]23)CC1` [Example 32], the inhibition at 0.1 µM (HIV-1 strain 92HT599; [6]) was 99%, the inhibition at 1 µM (HIV-1 strain 92HT599; [7]) was 99% and the viability at 100 nM [1] was 100%. The viability at 1000 nM [1] was 95%, the Tlast [2] was 48 h and the AUC(0-inf) [2] was 240 µg·h/mL. It also gave a Cmax [2] of 9200 ng/mL, a Tmax [2] of 6.5 h and an AUC(0-t) [2] of 214 µg·h/mL.

Work on `CC1([C@@H]2CC[C@]3(C(=O)N4CCN(CCCN5CCOCC5)CC4)CC[C@]4(C)[C@H](CC[C@@H]5[C@@]6(C)CC[C@H](OC(=O)[C@H]7C[C@@H](C(=O)O)C7(C)C)C(C)(C)[C@@H]6CC[C@]54C)[C@@H]23)CC1` [Example 34] yielded an inhibition at 0.1 µM (HIV-1 strain 92HT599; [6]) of 100%, an inhibition at 1 µM (HIV-1 strain 92HT599; [7]) of 100% and a viability at 100 nM [1] of 100%. It also gave a viability at 1000 nM [1] of 91%, a Tlast [2] of 48 h and an AUC(0-inf) [2] of 240 µg·h/mL. For the same compound, the Cmax [2] was 9200 ng/mL, the Tmax [2] was 6.5 h and the AUC(0-t) [2] was 214 µg·h/mL.

Compound `COCCOCCN1CCN(C(=O)[C@]23CC[C@@H](C4(C)CC4)[C@@H]2[C@H]2CC[C@@H]4[C@@]5(C)CC[C@H](OC(=O)CC(C)(C)C(=O)O)C(C)(C)[C@@H]5CC[C@@]4(C)[C@]2(C)CC3)CC1` [Example 39, 4-(((1R,3aS,5aR,5bR,7aR,9S,11aR,11bR,13aR,13bR)-3a-(4-(2-(2-methoxyethoxyl)ethyl)piperazine-1-carbonyl)-5a,5b,8,8,11a-pentamethyl-1-(1-methylcyclopropyl)icosahydro-1H-cyclopenta[a]chrysen-9-yl)oxy)-2,2-dimethyl-4-oxobutanoic acid] has an inhibition at 0.1 µM (HIV-1 strain 92HT599; [6]) of 97%, an inhibition at 1 µM (HIV-1 strain 92HT599; [7]) of 99% and a viability at 100 nM [1] of 83%. The viability at 1000 nM [1] was 88%, the Tlast [2] was 48 h and the AUC(0-inf) [2] was 119 µg·h/mL. For the same compound, the Cmax [2] was 7000 ng/mL, the Tmax [2] was 4 h and the AUC(0-t) [2] was 111 µg·h/mL.

Compound `COCCOCCN1CCN(C(=O)[C@]23CC[C@@H](C4(C)CC4)[C@@H]2[C@H]2CC[C@@H]4[C@@]5(C)CC[C@H](OC(=O)[C@H]6C[C@@H](C(=O)O)C6(C)C)C(C)(C)[C@@H]5CC[C@@]4(C)[C@]2(C)CC3)CC1` [Example 40, (1R,3S)-3-((((1R,3aS,5aR,5bR,7aR,9S,11aR,11bR,13aR,13bR)-3a-(4-(2-(2-methoxyethoxy)ethyl)piperazine-1-carbonyl)-5a,5b,8,8,11a-pentamethyl-1-(1-methylcyclopropyl)icosahydro-1H-cyclopenta[a]chrysen-9-yl)oxy)carbonyl)-2,2-dimethylcyclobutane-1-carboxylic acid] has an inhibition at 0.1 µM (HIV-1 strain 92HT599; [6]) of 100%, an inhibition at 1 µM (HIV-1 strain 92HT599; [7]) of 99% and a viability at 100 nM [1] of 79%. It also gave a viability at 1000 nM [1] of 81%, a Tlast [2] of 48 h and an AUC(0-inf) [2] of 119 µg·h/mL. The Cmax [2] was 7000 ng/mL, the Tmax [2] was 4 h and the AUC(0-t) [2] was 111 µg·h/mL.

Work on `COCCOC1CCN(C(=O)[C@]23CC[C@@H](C4(C)CC4)[C@@H]2[C@H]2CC[C@@H]4[C@@]5(C)CC[C@H](OC(=O)CC(C)(C)C(=O)O)C(C)(C)[C@@H]5CC[C@@]4(C)[C@]2(C)CC3)CC1` [Example 41, 4-(((1R,3aS,5aR,5bR,7aR,9S,11aR,11bR,13aR,13bR)-3a-(4-(2-methoxyethoxyl)piperidine-1-carbonyl)-5a,5b,8,8,11a-pentamethyl-1-(1-methylcyclopropyl)icosahydro-1H-cyclopenta[a]chrysen-9-yl)oxy)-2,2-dimethyl-4-oxobutanoic acid] yielded an inhibition at 0.1 µM (HIV-1 strain 92HT599; [6]) of 97%, an inhibition at 1 µM (HIV-1 strain 92HT599; [7]) of 99% and a viability at 100 nM [1] of 86%. It also gave a viability at 1000 nM [1] of 86%, a Tlast [2] of 48 h and an AUC(0-inf) [2] of 240 µg·h/mL. For the same compound, the Cmax [2] was 9200 ng/mL, the Tmax [2] was 6.5 h and the AUC(0-t) [2] was 214 µg·h/mL.

With `COCCOC1CCN(C(=O)[C@]23CC[C@@H](C4(C)CC4)[C@@H]2[C@H]2CC[C@@H]4[C@@]5(C)CC[C@H](OC(=O)[C@H]6C[C@@H](C(=O)O)C6(C)C)C(C)(C)[C@@H]5CC[C@@]4(C)[C@]2(C)CC3)CC1` [Example 42, (1R,3S)-3-((((1R,3aS,5aR,5bR,7aR,9S,11aR,11bR,13aR,13bR)-3a-(4-(2-methoxyethoxyl)piperidine-1-carbonyl)-5a,5b,8,8,8,11a-pentamethyl-1-(1-methylcyclopropyl)icosahydro-1H-cyclopenta[a]chrysen-9-yl)oxy)carbonyl)-2,2-dimethylcyclobutane-1-carboxylic acid] the inhibition at 0.1 µM (HIV-1 strain 92HT599; [3]) was 94%, the inhibition at 1 µM (HIV-1 strain 92HT599; [3]) was 99% and the viability at 100 nM [1, 4] was 86%. It also gave a viability at 1000 nM [1, 5] of 84%, a Tlast [2] of 48 h and a Cmax [2] of 7400 ng/mL. It also gave a Tmax [2] of 32 h and an AUC(0-t) [2] of 300 µg·h/mL.

`CC(C)(CC(=O)O[C@H]1CC[C@]2(C)[C@H]3CC[C@@H]4[C@H]5[C@H](C6(C)CC6)CC[C@]5(C(=O)N5CCC(C(=O)NCCN6CCOCC6)CC5)CC[C@@]4(C)[C@]3(C)CC[C@H]2C1(C)C)C(=O)O` [Example 49, 2,2-dimethyl-4-oxo-4-(((1R,3aS,5aR,5bR,7aR,9S,11aR,11bR,13aR,13bR)-5a,5b,8,8,11a-pentamethyl-1-(1-methylcyclopropyl)-3a-(4-((2-morpholinoethyl)carbamoyl)piperidine-1-carbonyl)icosahydro-1H-cyclopenta[a]chrysen-9-yl)oxy)butanoic acid] showed an inhibition at 0.1 µM (HIV-1 strain 92HT599; [6]) of 99%, an inhibition at 1 µM (HIV-1 strain 92HT599; [7]) of 98% and a viability at 100 nM [1] of 85%. The viability at 1000 nM [1] was 88%, the Tlast [2] was 48 h and the AUC(0-inf) [2] was 38.8 µg·h/mL. The Cmax [2] was 5600 ng/mL, the Tmax [2] was 1.3 h and the AUC(0-t) [2] was 38.7 µg·h/mL.

For `CC1([C@@H]2CC[C@]3(C(=O)N4CCC(C(=O)NCCN5CCOCC5)CC4)CC[C@]4(C)[C@H](CC[C@@H]5[C@@]6(C)CC[C@H](OC(=O)[C@H]7C[C@@H](C(=O)O)C7(C)C)C(C)(C)[C@@H]6CC[C@]54C)[C@@H]23)CC1` [Example 50, (1R,3S)-2,2-dimethyl-3-((((1R,3aS,5aR,5bR,7aR,9S,11aR,11bR,13aR,13bR)-5a,5b,8,8,11a-pentamethyl-1-(1-methylcyclopropyl)-3a-(4-((2-morpholinoethyl)carbamoyl)piperidine-1-carbonyl)icosahydro-1H-cyclopenta[a]chrysen-9-yl)oxy)carbonyl)cyclobutane-1-carboxylic acid], the inhibition at 0.1 µM (HIV-1 strain 92HT599; [6]) was 99%, the inhibition at 1 µM (HIV-1 strain 92HT599; [7]) was 99% and the viability at 100 nM [1] was 86%. It also gave a viability at 1000 nM [1] of 96%, a Tlast [2] of 48 h and an AUC(0-inf) [2] of 171 µg·h/mL. For the same compound, the Cmax [2] was 9100 ng/mL, the Tmax [2] was 6 h and the AUC(0-t) [2] was 164 µg·h/mL.
